Source: the NIST ThermoML archive (doi:10.1021/acs.jced.8b00975)

Assay: xn = mol fraction of the nth substance listed
Conditions: Liquid, Vibrating tube method

C=C(C)C(=O)OCCN(C)C [2-(dimethylamino)ethyl methylpropenoate] + CCCCO
mass density [kg/m3]
Conditions	100 kPa	5000 kPa	10000 kPa	15000 kPa	20000 kPa	25000 kPa	30000 kPa	35000 kPa
293.15 K, x1 = 0.0301	817.21	820.9	824.39	827.71	830.88	833.94	836.92	839.85
293.15 K, x1 = 0.06	824.09	827.83	831.32	834.6	837.73	840.76	843.75	846.74
293.15 K, x1 = 0.1005	833.13	836.85	840.32	843.61	846.74	849.77	852.74	855.68
293.15 K, x1 = 0.1995	852.44	856.11	859.55	862.82	865.96	869	872	875.01
293.15 K, x1 = 0.2993	868.71	872.37	875.83	879.12	882.28	885.36	888.38	891.38
293.15 K, x1 = 0.4005	882.69	886.4	889.87	893.17	896.32	899.39	902.42	905.46
293.15 K, x1 = 0.4521	889.04	892.7	896.14	899.43	902.58	905.66	908.71	911.75
293.15 K, x1 = 0.499	894.3	897.94	901.38	904.66	907.82	910.91	913.96	917.02
293.15 K, x1 = 0.5494	899.59	903.22	906.66	909.96	913.14	916.24	919.29	922.33
293.15 K, x1 = 0.5994	904.39	908.07	911.52	914.8	917.94	921.02	924.09	927.2
293.15 K, x1 = 0.7005	913.06	916.73	920.19	923.49	926.66	929.77	932.85	935.95
293.15 K, x1 = 0.7989	920.53	924.22	927.7	931.01	934.2	937.32	940.42	943.55
293.15 K, x1 = 0.8992	927.17	930.88	934.38	937.71	940.93	944.08	947.2	950.36
293.15 K, x1 = 0.9293	928.88	932.61	936.14	939.5	942.75	945.91	949.02	952.13
293.15 K, x1 = 0.9592	930.67	934.41	937.96	941.35	944.61	947.78	950.89	953.97
303.15 K, x1 = 0.0302	809.38	813.38	817.11	820.61	823.91	827.06	830.08	833.02
303.15 K, x1 = 0.0602	816.25	820.35	824.12	827.61	830.9	834.03	837.07	840.08
303.15 K, x1 = 0.1007	825	829.05	832.79	836.28	839.57	842.73	845.81	848.85
303.15 K, x1 = 0.2007	844.03	848.08	851.83	855.35	858.69	861.89	865.03	868.15
303.15 K, x1 = 0.3007	860.04	864.03	867.77	871.3	874.67	877.92	881.1	884.26
303.15 K, x1 = 0.4013	873.63	877.52	881.22	884.76	888.16	891.46	894.68	897.86
303.15 K, x1 = 0.4512	879.59	883.43	887.11	890.65	894.08	897.42	900.69	903.91
303.15 K, x1 = 0.5007	885.03	888.88	892.55	896.09	899.51	902.86	906.16	909.45
303.15 K, x1 = 0.5502	890.11	894.02	897.73	901.29	904.73	908.09	911.42	914.74
303.15 K, x1 = 0.6045	895.25	899.16	902.88	906.44	909.9	913.27	916.62	919.96
303.15 K, x1 = 0.7005	903.5	907.36	911.08	914.68	918.19	921.62	925.01	928.36
303.15 K, x1 = 0.8026	911.12	914.97	918.68	922.29	925.8	929.26	932.68	936.08
303.15 K, x1 = 0.9026	917.53	921.4	925.14	928.77	932.32	935.81	939.25	942.69
303.15 K, x1 = 0.9303	919.17	923.07	926.83	930.48	934.04	937.53	940.98	944.42
303.15 K, x1 = 0.9616	921.02	924.91	928.67	932.32	935.89	939.4	942.88	946.34
313.15 K, x1 = 0.0302	801.72	805.93	809.83	813.46	816.91	820.24	823.51	826.8
313.15 K, x1 = 0.0603	808.58	812.75	816.62	820.25	823.69	827.01	830.28	833.54
313.15 K, x1 = 0.1019	817.15	821.38	825.29	828.95	832.41	835.74	839	842.24
313.15 K, x1 = 0.2001	835.66	839.79	843.65	847.3	850.79	854.16	857.46	860.72
313.15 K, x1 = 0.301	851.41	855.57	859.51	863.24	866.8	870.21	873.49	876.67
313.15 K, x1 = 0.3999	864.54	868.7	872.64	876.4	880	883.45	886.78	890.02
313.15 K, x1 = 0.4519	870.67	874.82	878.78	882.54	886.15	889.61	892.94	896.17
313.15 K, x1 = 0.5002	875.94	880.09	884.04	887.81	891.43	894.9	898.25	901.51
313.15 K, x1 = 0.5505	881.12	885.27	889.22	893.01	896.64	900.13	903.49	906.74
313.15 K, x1 = 0.6004	885.84	890.02	894	897.79	901.42	904.91	908.27	911.52
313.15 K, x1 = 0.701	894.49	898.55	902.51	906.34	910.04	913.62	917.04	920.32
313.15 K, x1 = 0.8004	901.91	905.99	909.92	913.71	917.39	920.98	924.48	927.93
313.15 K, x1 = 0.9	908.36	912.45	916.43	920.31	924.08	927.72	931.24	934.63
313.15 K, x1 = 0.9322	910.31	914.45	918.45	922.31	926.03	929.63	933.11	936.46
313.15 K, x1 = 0.9608	911.98	916.12	920.11	923.96	927.68	931.27	934.75	938.13
